Patent publication EP4806435A1, “DIHYDROCHROMENE-DERIVATIVE-CONTAINING THERAPEUTIC AGENT FOR CANCER” (Sumitomo Pharma Co., Ltd., priority 2023, dated 2025)
Like-named read-outs stand apart in the source and are kept apart here.

Test: Phase 1 clinical trial: plasma pharmacokinetics
Assay type: in vivo, human
Settings: for Tmax / half-life / Cmax / AUC / AUC(0-t): human, plasma, oral; for half-life: read-out: Effective T1/2 (converted); for AUC: tau = 24 hours
Procedure: Summary statistics based on preliminary data were obtained for the pharmacokinetics of Compound 1 in patients receiving once-daily doses ranging from 20 mg to 240 mg (Table 5). The mean plasma concentration-time curves of Compound 1 in the once-daily dose groups ranging from 20 mg to 240 mg are shown in Figure 11. In this study, one cycle consists of 28 days, and Cycle 1 Day 1 refers to Day 1 of the first cycle. […] Accumulation was observed after repeated administration. […] Based on these accumulation ratios, the half-life of Compound 1 was estimated to be approximately 4 days. Based on the currently available data, plasma concentrations are considered to have reached steady state by Day 15.
Summary statistics based on preliminary data were obtained for the pharmacokinetics of Compound 1 in patients in the 20 mg QD, 40 mg QD, 80 mg QD, 120 mg QD, 180 mg QD, 240 mg QD, 360 mg QD, and 480 mg daily (240 mg BID) dose groups (Table 6). The mean plasma concentration-time curves of Compound 1 in the 20 mg QD to 480 mg daily (240 mg BID) dose groups are shown in Figure 12 (in Figure 12, Compound 1 is denoted as "DSP-0390"). In this study, one cycle consists of 28 days, and Cycle 1 Day 1 refers to Day 1 of the first cycle. […] The median Tmax ranged from 2 to 8 hours. Accumulation was observed after repeated administration, and assuming linearity based on the observed accumulation ratios, the estimated elimination half-life was considered to be on the order of several days (approximately 1 to 6 days) (data cut-off: March 2024).

[1] = 480 mg (240 mg BID), cut-off March 2024

## CC1(C)Oc2cc(Cl)ccc2[C@@H]2OCC3(CCN(CCn4ccnc4)CC3)C[C@H]21 [Compound 1, (4'aR,10'bR)-8'-chloro-1-[2-(1H-imidazol-1-yl)ethyl]-5',5'-dimethyl-4'a,10'b-dihydro-2'H,4'H,5'H-spiro[piperidine-4,3'-pyrano[3,2-c][1]benzopyran] diphosphate]
20 mg QD, cut-off March 2024
  AR AUC (accumulation ratio): 7.31
  AR Cmax (accumulation ratio): 6.52
20 mg, QD, cut-off April 2023
  AR AUC (mean accumulation ratio): 7.4
  AR Cmax (mean accumulation ratio): 6.1
40 mg QD, cut-off March 2024
  AR AUC (accumulation ratio): 8.93
  AR Cmax (accumulation ratio): 6.04
40 mg, QD, cut-off April 2023
  AR AUC (mean accumulation ratio): 8.6
  AR Cmax (mean accumulation ratio): 6.2
80 mg QD, cut-off March 2024
  AR AUC (accumulation ratio): 4.47
  AR Cmax (accumulation ratio): 3.70
80 mg, QD, cut-off April 2023
  AR AUC (mean accumulation ratio): 6.9
  AR Cmax (mean accumulation ratio): 5.8
120 mg QD, cut-off March 2024
  AR AUC (accumulation ratio): 4.52
  AR Cmax (accumulation ratio): 3.53
120 mg, QD, cut-off April 2023
  AR AUC (mean accumulation ratio): 5.3
  AR Cmax (mean accumulation ratio): 4.6
180 mg QD, cut-off March 2024
  AR AUC (accumulation ratio): 3.55
  AR Cmax (accumulation ratio): 1.89
180 mg, QD, N=1, cut-off April 2023
  AR AUC (mean accumulation ratio): 3.9
180 mg, QD, cut-off April 2023
  AR Cmax (mean accumulation ratio): 2
240 mg QD, cut-off March 2024
  AR AUC (accumulation ratio): 3.29
  AR Cmax (accumulation ratio): 1.79
240 mg, QD, N=1, cut-off April 2023
  AR AUC (mean accumulation ratio): 3.9
240 mg, QD, cut-off April 2023
  AR Cmax (mean accumulation ratio): 2.6
360 mg QD, cut-off March 2024
  AR AUC (accumulation ratio): 2.07
  AR Cmax (accumulation ratio): 1.36
[1]
  AR AUC (accumulation ratio): 1.61
  AR Cmax (accumulation ratio): 2.42
cut-off April 2023
  half-life estimated from accumulation ratios: approximately 4 days
20 mg QD to 480 mg daily (240 mg BID), cut-off March 2024, read-out: median Tmax, range over dose groups
  Tmax: 2 to 8 h
20 mg, 20 mg QD, cut-off March 2024
  half-life: 113 h
20 mg, Cycle 1, Day 1, 20 mg QD, cut-off March 2024, read-out: Cmax
  Cmax: 4.28 ng/mL
20 mg, Cycle 1, Day 1, 20 mg QD, cut-off March 2024, read-out: Tmax [a] median value
  Tmax: 6 h
20 mg, Cycle 1, Day 1, 20 mg QD, cut-off March 2024, read-out: AUCtau [b]
  AUC: 76.6 ng·h/mL
20 mg, Cycle 1 Day 1, 20 mg, QD, cut-off April 2023, read-out: AUC0-24 (geometric mean)
  AUC(0-t): 76 ng·h/mL
20 mg, Cycle 1 Day 1, 20 mg, QD, cut-off April 2023, read-out: AUC0-24 (mean)
  AUC(0-t): 77 ng·h/mL
20 mg, Cycle 1 Day 1, 20 mg, QD, cut-off April 2023, read-out: AUC0-24 (median)
  AUC(0-t): 77 ng·h/mL
20 mg, Cycle 1 Day 1, 20 mg, QD, cut-off April 2023, read-out: Cmax (geometric mean)
  Cmax: 4 ng/mL
20 mg, Cycle 1 Day 1, 20 mg, QD, cut-off April 2023, read-out: Cmax (mean)
  Cmax: 4 ng/mL
20 mg, Cycle 1 Day 1, 20 mg, QD, cut-off April 2023, read-out: Cmax (median)
  Cmax: 4 ng/mL
20 mg, Cycle 1 Day 1, 20 mg, QD, cut-off April 2023, read-out: Tmax (mean)
  Tmax: 6 h
20 mg, Cycle 1 Day 1, 20 mg, QD, cut-off April 2023, read-out: Tmax (median)
  Tmax: 6 h
20 mg, Cycle 2, Day 1, 20 mg QD, cut-off March 2024, read-out: Cmax,ss
  Cmax: 27.9 ng/mL
20 mg, Cycle 2, Day 1, 20 mg QD, cut-off March 2024, read-out: Tmax,ss [a] median value
  Tmax: 7 h
20 mg, Cycle 2, Day 1, 20 mg QD, cut-off March 2024, read-out: AUCtau,ss [b]
  AUC: 560 ng·h/mL
20 mg, Cycle 2 Day 1, 20 mg, QD, cut-off April 2023, read-out: AUC0-24 (geometric mean)
  AUC(0-t): 557 ng·h/mL
20 mg, Cycle 2 Day 1, 20 mg, QD, cut-off April 2023, read-out: AUC0-24 (mean)
  AUC(0-t): 561 ng·h/mL
20 mg, Cycle 2 Day 1, 20 mg, QD, cut-off April 2023, read-out: AUC0-24 (median)
  AUC(0-t): 561 ng·h/mL
20 mg, Cycle 2 Day 1, 20 mg, QD, cut-off April 2023, read-out: Cmax (geometric mean)
  Cmax: 28 ng/mL
20 mg, Cycle 2 Day 1, 20 mg, QD, cut-off April 2023, read-out: Cmax (mean)
  Cmax: 28 ng/mL
20 mg, Cycle 2 Day 1, 20 mg, QD, cut-off April 2023, read-out: Cmax (median)
  Cmax: 28 ng/mL
20 mg, Cycle 2 Day 1, 20 mg, QD, cut-off April 2023, read-out: Tmax (mean)
  Tmax: 7 h
20 mg, Cycle 2 Day 1, 20 mg, QD, cut-off April 2023, read-out: Tmax (median)
  Tmax: 7 h
40 mg, 40 mg QD, cut-off March 2024
  half-life: 139 h
40 mg, Cycle 1, Day 1, 40 mg QD, cut-off March 2024, read-out: Cmax
  Cmax: 9.87 ng/mL
40 mg, Cycle 1, Day 1, 40 mg QD, cut-off March 2024, read-out: Tmax [a] median value
  Tmax: 8 h
40 mg, Cycle 1, Day 1, 40 mg QD, cut-off March 2024, read-out: AUCtau [b]
  AUC: 131 ng·h/mL
40 mg, Cycle 1 Day 1, 40 mg, QD, cut-off April 2023, read-out: AUC0-24 (geometric mean)
  AUC(0-t): 123 ng·h/mL
40 mg, Cycle 1 Day 1, 40 mg, QD, cut-off April 2023, read-out: AUC0-24 (mean)
  AUC(0-t): 132 ng·h/mL
40 mg, Cycle 1 Day 1, 40 mg, QD, cut-off April 2023, read-out: AUC0-24 (median)
  AUC(0-t): 107 ng·h/mL
40 mg, Cycle 1 Day 1, 40 mg, QD, cut-off April 2023, read-out: Cmax (geometric mean)
  Cmax: 8 ng/mL
40 mg, Cycle 1 Day 1, 40 mg, QD, cut-off April 2023, read-out: Cmax (mean)
  Cmax: 10 ng/mL
40 mg, Cycle 1 Day 1, 40 mg, QD, cut-off April 2023, read-out: Cmax (median)
  Cmax: 7 ng/mL
40 mg, Cycle 1 Day 1, 40 mg, QD, cut-off April 2023, read-out: Tmax (mean)
  Tmax: 11 h
40 mg, Cycle 1 Day 1, 40 mg, QD, cut-off April 2023, read-out: Tmax (median)
  Tmax: 8 h
40 mg, Cycle 2, Day 1, 40 mg QD, cut-off March 2024, read-out: Cmax,ss
  Cmax: 59.6 ng/mL
40 mg, Cycle 2, Day 1, 40 mg QD, cut-off March 2024, read-out: Tmax,ss [a] median value
  Tmax: 4 h
40 mg, Cycle 2, Day 1, 40 mg QD, cut-off March 2024, read-out: AUCtau,ss [b]
  AUC: 1170 ng·h/mL
40 mg, Cycle 2 Day 1, 40 mg, QD, cut-off April 2023, read-out: AUC0-24 (geometric mean)
  AUC(0-t): 1110 ng·h/mL
40 mg, Cycle 2 Day 1, 40 mg, QD, cut-off April 2023, read-out: AUC0-24 (mean)
  AUC(0-t): 1180 ng·h/mL
40 mg, Cycle 2 Day 1, 40 mg, QD, cut-off April 2023, read-out: AUC0-24 (median)
  AUC(0-t): 1370 ng·h/mL
40 mg, Cycle 2 Day 1, 40 mg, QD, cut-off April 2023, read-out: Cmax (geometric mean)
  Cmax: 56 ng/mL
40 mg, Cycle 2 Day 1, 40 mg, QD, cut-off April 2023, read-out: Cmax (mean)
  Cmax: 60 ng/mL
40 mg, Cycle 2 Day 1, 40 mg, QD, cut-off April 2023, read-out: Cmax (median)
  Cmax: 72 ng/mL
40 mg, Cycle 2 Day 1, 40 mg, QD, cut-off April 2023, read-out: Tmax (mean)
  Tmax: 5 h
40 mg, Cycle 2 Day 1, 40 mg, QD, cut-off April 2023, read-out: Tmax (median)
  Tmax: 4 h
80 mg, 80 mg QD, cut-off March 2024
  half-life: 64.8 h
80 mg, Cycle 1, Day 1, 80 mg QD, cut-off March 2024, read-out: Cmax
  Cmax: 17.1 ng/mL
80 mg, Cycle 1, Day 1, 80 mg QD, cut-off March 2024, read-out: Tmax [a] median value
  Tmax: 8 h
80 mg, Cycle 1, Day 1, 80 mg QD, cut-off March 2024, read-out: AUCtau [b]
  AUC: 264 ng·h/mL
80 mg, Cycle 1 Day 1, 80 mg, QD, cut-off April 2023, read-out: AUC0-24 (geometric mean)
  AUC(0-t): 203 ng·h/mL
80 mg, Cycle 1 Day 1, 80 mg, QD, cut-off April 2023, read-out: AUC0-24 (mean)
  AUC(0-t): 268 ng·h/mL
80 mg, Cycle 1 Day 1, 80 mg, QD, cut-off April 2023, read-out: AUC0-24 (median)
  AUC(0-t): 205 ng·h/mL
80 mg, Cycle 1 Day 1, 80 mg, QD, cut-off April 2023, read-out: Cmax (geometric mean)
  Cmax: 13 ng/mL
80 mg, Cycle 1 Day 1, 80 mg, QD, cut-off April 2023, read-out: Cmax (mean)
  Cmax: 17 ng/mL
80 mg, Cycle 1 Day 1, 80 mg, QD, cut-off April 2023, read-out: Cmax (median)
  Cmax: 15 ng/mL
80 mg, Cycle 1 Day 1, 80 mg, QD, cut-off April 2023, read-out: Tmax (mean)
  Tmax: 8 h
80 mg, Cycle 1 Day 1, 80 mg, QD, cut-off April 2023, read-out: Tmax (median)
  Tmax: 8 h
80 mg, Cycle 2, Day 1, 80 mg QD, cut-off March 2024, read-out: Cmax,ss
  Cmax: 63.2 ng/mL
80 mg, Cycle 2, Day 1, 80 mg QD, cut-off March 2024, read-out: Tmax,ss [a] median value
  Tmax: 8 h
80 mg, Cycle 2, Day 1, 80 mg QD, cut-off March 2024, read-out: AUCtau,ss [b]
  AUC: 1180 ng·h/mL
80 mg, Cycle 2 Day 1, 80 mg, QD, cut-off April 2023, read-out: AUC0-24 (geometric mean)
  AUC(0-t): 1100 ng·h/mL
80 mg, Cycle 2 Day 1, 80 mg, QD, cut-off April 2023, read-out: AUC0-24 (mean)
  AUC(0-t): 1190 ng·h/mL
80 mg, Cycle 2 Day 1, 80 mg, QD, cut-off April 2023, read-out: AUC0-24 (median)
  AUC(0-t): 1110 ng·h/mL
80 mg, Cycle 2 Day 1, 80 mg, QD, cut-off April 2023, read-out: Cmax (geometric mean)
  Cmax: 58 ng/mL
80 mg, Cycle 2 Day 1, 80 mg, QD, cut-off April 2023, read-out: Cmax (mean)
  Cmax: 63 ng/mL
